Values of other authors in patent US20090092668A1, “ACETAMINOPHEN FORMULATION FOR JOINT PAIN RELIEF” (priority 2006, published 2009).

Assays:
[1] = one subject

excreted as exhaled carbon dioxide (of the absorbed glucosamine) [%]	excreted in the urine (of the absorbed glucosamine) [%]	remaining in the tissues (of the absorbed glucosamine) [%]	absorbed from the small intestine (sulfate form)	SMILES	pain status ([1]; ¼-½ tsp. daily for about 16 months)	pain relief ([1]; ½ tsp. daily in diet, by the end of the second week)
65	25	10	over 90%	N[C@H]1C(O)O[C@H](CO)[C@@H](O)[C@@H]1O (stereo partly drawn) [glucosamine]		
				CS(C)(=O)=O [MSM, Methylsulfonylmethane]	substantially pain-free life	almost total pain relief
